In PubChem BioAssay (NCI):
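Compound exposure: 48 hours, 5 concentrations, 96-well plates. At the GI50, growth is halved. TGI: concentration producing complete growth inhibition.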 Where a SMILES comes first, the peptide text is derived from it. [ ]: non-standard residue; d: D form.

Key:
Test in all cases: NCI-60 cell line screen, 48 h
[1] = tested on: EKVX NSCLC
[2] = tested on: HCC-2998 colon
[3] = tested on: HL-60(TB) leukemia
[4] = tested on: K-562 leukemia
[5] = tested on: OVCAR-8 ovarian
[6] = tested on: SK-MEL-28 melanoma
[7] = tested on: SK-OV-3 ovarian
[8] = tested on: SN12C renal
[9] = tested on: SW-620 colon
[10] = tested on: T-47D breast

SMILES	TGI [1] [µM]	TGI [2] [µM]	TGI [3] [µM]	TGI [4] [µM]	TGI [5] [µM]	TGI [6] [µM]	TGI [7] [µM]	TGI [8] [µM]	TGI [9] [µM]	TGI [10] [µM]	GI50 [1] [µM]	GI50 [2] [µM]	GI50 [3] [µM]	GI50 [4] [µM]	GI50 [6] [µM]	GI50 [7] [µM]	GI50 [8] [µM]
Cc1ccc(C)n1-c1ccccc1C1C=Cn2c(=O)oc3c(OC(C)C)c(OC(C)C)c(O)c1c32 (centres undefined)	> 100	> 100	> 100	> 100	> 100	> 100	> 100	> 100	75.6								
O=S(=O)(O)c1cc(S(=O)(=O)O)c2cc(N=Nc3ccc(N=Nc4ccc(/C=C/c5ccc(N=[N+]([O-])c6ccc(/C=C/c7ccc(N=Nc8ccc(N=Nc9ccc%10cc(S(=O)(=O)O)cc(S(=O)(=O)O)c%10c9)cc8)cc7S(=O)(=O)O)c(S(=O)(=O)O)c6)cc5S(=O)(=O)O)c(S(=O)(=O)O)c4)cc3)ccc2c1	> 100	> 100	> 100	> 100	> 100	> 100	> 100	> 100									
CSc1ccc(N2C(=O)C3c4[nH]c5ccccc5c4C4CCC(C(C)(C)C)CC4C3C2=O)cc1 (centres undefined)	44.2	33.3	31.1	34.5	27.8	35.1	32.7	35.9	> 100								
COC1C(O)C(C)OC(O[C@H]2CC[C@@]3(C)C(CC[C@@H]4[C@@H]3CC[C@]3(C)[C@@H](C(C)OC5OC(CO)C(O)C(O)C5O)CC[C@]43O)C2)C1O (some centres undefined)	> 25	> 25	> 25	> 25	> 25	> 25	> 25	> 25	> 25								
Clc1ccc(C2SCc3nc4ccccc4n32)cc1 (centres undefined)	> 100		22.6	> 100	> 100	68.1	69.9	42.7	> 100								
COCC(C#N)NC1CC(OC2CC(O)(C(=O)CO)Cc3c(O)c4c(c(O)c32)C(=O)c2c(OC)cccc2C4=O)OC(C)C1O (centres undefined)	4.62	0.471	0.432	1.11	0.549	0.527	10.6	2.02	4.8								
NS(=O)(=O)c1ccc(-c2ccc([As](=O)(O)O)cc2)cc1	> 100		> 100	> 100	> 100	> 100	> 100	> 100	> 100	> 100							
CCSC12OC3(CCCCCN3C1=O)C1C(=O)N(c3ccccc3)C(=O)C12 (centres undefined)	> 100		> 100	> 100	> 100	> 100	> 100	> 100	> 100	> 100							
COc1ccc(NC(=O)CSC(=O)c2ccccc2)c(SCCSSCCSc2cc(OC)ccc2NC(=O)CSC(=O)c2ccccc2)c1	> 100		> 100		> 100		> 100	> 100	> 100	> 100							
CC(=O)/C=C(/C)[O-].CC(=O)/C=C(/C)[O-].CC(=O)[CH-]C(C)=O.CC(=O)[CH-]C(C)=O.[Zr+4]	> 100	> 100	71.3	> 100		> 100	> 100	> 100			> 100	> 100	28.8	> 100	> 100	> 100	> 100
CCCN=C1NC(C)=CSC(Nc2ccccc2)=C1C#N				> 100	> 100	> 100	> 100	> 100	> 100	> 100							
NC1(c2cc3ccccc3s2)CCCCCC1	33.2	4.49	31.5	28.1	35.8	30.9	31.2	31	31.1								
COC(=O)N[C@@H]1C[C@H]2CC[C@]1(O[Si](C(C)C)(C(C)C)C(C)C)C(=O)C2	31.8		78.7	> 100	63.4	36.8	46.5	> 100	> 100	> 100							
O=C1CCCC1CC(CN1CCOCC1)Sc1nnnn1-c1ccccc1 (centres undefined)	> 100	> 100	82.2	> 100	> 100	> 100	> 100	> 100	> 100								
N=C(N)SCc1nc(-c2ccc(Cl)cc2)no1	89.4		37.1	41.9	> 100	33	> 100	37.5	37.2	29.9							
Cc1cc(C)[n+]2c(c1)C=CC2	> 100	> 100	26.3		> 100	> 100		> 100	> 100								

SMILES	TGI [1] [µM]	TGI [2] [µM]	TGI [3] [µM]	TGI [4] [µM]	TGI [5] [µM]	TGI [6] [µM]	TGI [7] [µM]	TGI [8] [µM]	TGI [9] [µM]	TGI [10] [µM]	GI50 [1] [µM]	GI50 [2] [µM]	GI50 [3] [µM]	GI50 [4] [µM]	GI50 [6] [µM]	GI50 [7] [µM]	GI50 [8] [µM]
CC(=O)NC1C(OCc2ccccc2)OC(CO)C(O)C1OC(C)C(=O)NC(C(=O)NC(CCC(=O)NCCCNc1ccc([N+](=O)[O-])c2[nH]c3ccccc3c(=O)c12)C(N)=O)C(C)C (centres undefined)	> 100		> 100		> 100	> 100	> 100	> 100	> 100	> 100							
O=S(=O)(O)c1ccc(O)c(N=Nc2c(O)ccc3ccccc23)c1	> 100			> 100	> 100	> 100	> 100	> 100	> 100	> 100							
COc1ccc(/C(=N/O)c2ccccc2C2=Nc3ccccc3C(NCc3ccccc3)O2)cc1C (centres undefined)	> 100	> 100	> 100	97.4	77.1	> 100	82.5	> 100	> 100								
COc1cc2nc(-c3cccs3)nc(N3CCN(c4ccccc4)CC3)c2cc1OC	> 100		> 100	> 100	> 100	> 100	> 100	> 100	> 100	> 100							
O=C1Sc2ccccc2C(=O)N2CCSC12 (centres undefined)		> 100	> 100	> 100	> 100	> 100	> 100	> 100	> 100								
CC(C)C[C@H](NC(=O)[C@H](CC(C)C)NC(=O)[C@@H](Cc1c[nH]c2ccccc12)NC(=O)[C@H](Cc1ccccc1)NC(=O)[C@@H](Cc1c[nH]c2ccccc12)NC(=O)[C@H](CCC(N)=O)NC(=O)[C@@H](CCC(N)=O)NC(=O)[C@@H]1CCCN1C(=O)[C@@H](CCCCN)NC(=O)[C@H]1CCCN1C(=O)[C@H](N)CCCN=C(N)N)C(N)=O (H-[dR][dP][dK]P[dQ]Q[dW]F[dW]LL-NH2)	> 100	> 100	> 100	> 100	> 100	> 100	> 100	> 100	> 100								
CC1CN(c2cc3c(cc2F)c(=O)c(C(=O)O)cn3-c2ccc(N3CCN(C)CC3)cn2)CC(C)N1 (centres undefined)	> 100		> 100	> 100	> 100	> 100	> 100	> 100	> 100	> 100							
COC(=O)/C1=C/C=C\C[C@@]2(C)CC(c3ccoc3)OC(=O)[C@@H]2CC[C@H]1C (some centres undefined)	> 25	> 25	> 25	> 25	> 25	> 25	> 25	> 25	> 25								
O=C1CCC2(O)c3ccccc3C2Cc2ccccc21 (centres undefined)	> 100	> 100	> 100	> 100	> 100	> 100		> 100	> 100								
[N-]=[N+]=Nc1cc(=O)[nH]c2ccccc12	42.5			> 100	> 100	> 100	> 100	> 100	> 100	> 100							
COC(=O)/C=C1\C(CO[Si](C)(C)C(C)(C)C)OC(n2cc(C)c(=O)n(C)c2=O)C1O[Si](C)(C)C(C)(C)C (centres undefined)	> 100			> 100	> 100	> 100	> 100	> 100	> 100								
CCCCCc1cc2cc3c(c(O)c2c(=O)[nH]1)C1(CCC3)C(=O)c2c(O)ccc(O)c2C1=O	> 100	> 100	> 100	> 100	> 100	> 100		> 100	> 100								
CC1(C)CC(=O)c2c(N)n[nH]c2C1	> 100	> 100	> 100	> 100	> 100	> 100		> 100	> 100								
CC(C)OC1=C(CC2(C)OCCO2)C(=O)C12OCCO2	> 100		> 100		> 100	> 100	> 100	> 100	> 100	> 100							
Oc1ccc(-c2nc3cc(C(F)(F)F)ccc3s2)cc1	16.9		40.7	> 100	29.4		40.7	32.6	40.2								
